Target: T1, human GLP1R (Homo sapiens, UniProt P43220)
T1 construct: expressed in transfected cells; host or cells: CHO cells (ATCC), transient transfection with pCMV-human GLP1R
Assay: Human GLP-1 receptor transfected cell assay (MRE/CRE-luciferase reporter gene, agonist activity)
Type: cell-based
Settings: 6 h; conc. 3.16 μM; percentage of the activity of the control; read-out: Agonist Activity
Outline: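 CHO cells transiently co-transfected with human GLP1R and MRE/CRE-driven luciferase reporter plasmids. Compound or GLP-1 (7-36 amide) standard dilution series added for 6 h at 37 °C, 5% CO2. Agonist activity read as Bright-Glo luciferase luminescence.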

T1 sequence (P43220 24-463): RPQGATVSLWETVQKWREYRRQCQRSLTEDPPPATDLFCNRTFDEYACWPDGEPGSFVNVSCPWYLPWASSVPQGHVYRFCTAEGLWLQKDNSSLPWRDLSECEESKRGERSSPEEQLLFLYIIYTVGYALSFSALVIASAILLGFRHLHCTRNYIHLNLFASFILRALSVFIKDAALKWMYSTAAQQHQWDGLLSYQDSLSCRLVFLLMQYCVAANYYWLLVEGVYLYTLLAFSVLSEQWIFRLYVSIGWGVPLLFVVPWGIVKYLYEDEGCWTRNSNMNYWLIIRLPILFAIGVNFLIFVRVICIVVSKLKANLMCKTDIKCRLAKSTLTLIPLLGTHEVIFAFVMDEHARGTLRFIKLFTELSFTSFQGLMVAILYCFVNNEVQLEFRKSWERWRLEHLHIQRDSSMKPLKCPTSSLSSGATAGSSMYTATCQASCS

| SMILES | activation at 3.16 µM [%] |
| --- | --- |
| Cc1ccc(-c2ccc(C(=O)NC(Cc3ccc(-c4noc(-c5ccc(NC(=O)OC(C)(C)C)cc5)n4)c(Br)c3)C(=O)O)o2)cc1 (stereo not drawn) [Compound 13G] | > 60 |
| Cc1ccc(-c2ccc(C(=O)NC(Cc3ccc(-c4nnc(-c5ccc(NC(=O)OC(C)(C)C)cc5)o4)c(F)c3)C(=O)O)o2)cc1 (stereo not drawn) [Compound 14F] | 40 to 60 |
| CC(C)(C)OC(=O)Nc1ccc(-c2nc(-c3ccc(CC(NC(=O)c4cncc(-c5ccc(F)cc5)c4)C(=O)O)cc3F)no2)cc1 (stereo not drawn) [Compound 14H] | > 60 |

Same assay, conditions: 6 h; conc. 10 μM; percentage of the activity of the control; read-out: Agonist Activity

| SMILES | activation at 10 µM [%] |
| --- | --- |
| CC(C)(C)OC(=O)Nc1ccc(-c2nc(-c3ccc(CC(NS(=O)(=O)N4CCN(C(=O)OC(C)(C)C)CC4)C(=O)O)cc3F)no2)cc1 (stereo not drawn) [Compound 11W] | 40 to 60 |
| CC(C)(C)OC(=O)Nc1ccc(-c2nc(-c3ccc(CC(NS(=O)(=O)N4CCN(c5ccccc5)CC4)C(=O)O)cc3F)no2)cc1 (stereo not drawn) [Compound 11X] | > 60 |
| CC(C)(C)OC(=O)Nc1ccc(-c2nc(-c3ccc(CC(NC(=O)c4cccc(N5CCCCC5)c4)C(=O)O)cc3F)no2)cc1 (stereo not drawn) [Compound 11Y] | 20 to 40 |
| CC(C)(C)OC(=O)Nc1ccc(-c2nc(-c3ccc(CC(NS(=O)(=O)NCc4ccccc4)C(=O)O)cc3F)no2)cc1 (stereo not drawn) [Compound 11Z] | 40 to 60 |
| CC(C)(C)OC(=O)Nc1ccc(-c2nc(-c3ccc(CC(NC(=O)N4CCN(c5ccc(C(F)(F)F)cc5)CC4)C(=O)O)cc3F)no2)cc1 (stereo not drawn) [Compound 12A] | > 60 |
| CC(C)(C)OC(=O)Nc1ccc(-c2nc(-c3ccc(CC(NC(=O)N4CCN(c5cccc(Cl)c5)CC4)C(=O)O)cc3F)no2)cc1 (stereo not drawn) [Compound 12C] | > 60 |
| CC(C)(C)OC(=O)Nc1ccc(-c2nc(-c3ccc(CC(NC(=O)N4CCN(c5ccccc5C#N)CC4)C(=O)O)cc3F)no2)cc1 (stereo not drawn) [Compound 12D] | > 60 |
| CC(C)(C)OC(=O)Nc1ccc(-c2nc(-c3ccc(CC(NC(=O)N4CCN(c5cccc(C(F)(F)F)c5)CC4)C(=O)O)cc3F)no2)cc1 (stereo not drawn) [Compound 12F] | > 60 |
| Cc1ccc(-c2cc(NC(=O)NC(Cc3ccc(-c4noc(-c5ccc(NC(=O)OC(C)(C)C)cc5)n4)c(F)c3)C(=O)O)[nH]n2)cc1 (stereo not drawn) [Compound 12G] | > 60 |
| COc1ccc(-c2cc(NC(=O)NC(Cc3ccc(-c4noc(-c5ccc(NC(=O)OC(C)(C)C)cc5)n4)c(F)c3)C(=O)O)[nH]n2)cc1 (stereo not drawn) [Compound 12H] | > 60 |
| CC(C)(C)OC(=O)Nc1ccc(-c2nc(-c3ccc(CC(NC(=O)Nc4cc(-c5ccc(F)cc5)n[nH]4)C(=O)O)cc3F)no2)cc1 (stereo not drawn) [Compound 12I] | > 60 |
| CC(C)(C)OC(=O)Nc1ccc(-c2nc(-c3ccc(CC(NC(=O)N4CCN(c5ccc(Cl)cc5)CC4)C(=O)O)cc3F)no2)cc1 (stereo not drawn) [Compound 13A] | > 60 |
| CC(C)(C)OC(=O)Nc1ccc(-c2nc(-c3ccc(CC(NC(=O)c4ccc(-c5ccccn5)s4)C(=O)O)cc3F)no2)cc1 (stereo not drawn) [Compound 13B] | > 60 |
| CC(C)(C)OC(=O)Nc1ccc(-c2nc(-c3ccc(CC(NC(=O)Nc4ccccc4)C(=O)O)cc3F)no2)cc1 (stereo not drawn) [Compound 13D] | 40 to 60 |
| Cc1ccc(-c2ccc(C(=O)NC(Cc3ccc(-c4noc(-c5ccc(NC(=O)OC(C)(C)C)cc5)n4)c(F)c3F)C(=O)O)o2)cc1 (stereo not drawn) [Compound 13F] | > 60 |
| CC(C)(C)OC(=O)Nc1ccc(-c2nc(-c3ccc(CC(NC(=O)Nc4ccc(C(F)(F)F)cc4)C(=O)O)cc3F)no2)cc1 (stereo not drawn) [Compound 13H] | > 60 |
| Cc1ccc(-c2ccc(C(=O)NC(Cc3ccc(-c4noc(-c5ccc(NC(=O)OC(C)(C)C)cc5)n4)c(C#N)c3)C(=O)O)o2)cc1 (stereo not drawn) [Compound 13I] | 40 to 60 |
| CC(C)(C)OC(=O)Nc1ccc(-c2nc(-c3ccc(CC(NC(=O)Nc4ccc(-c5ccc(C(F)(F)F)cc5)cn4)C(=O)O)cc3F)no2)cc1 (stereo not drawn) [Compound 13K] | > 60 |
| Cc1cccc(-c2ccc(NC(=O)NC(Cc3ccc(-c4noc(-c5ccc(NC(=O)OC(C)(C)C)cc5)n4)c(F)c3)C(=O)O)nc2)c1 (stereo not drawn) [Compound 13L] | > 60 |
| Cc1ccc(-c2ccc(NC(=O)NC(Cc3ccc(-c4noc(-c5ccc(NC(=O)OC(C)(C)C)cc5)n4)c(F)c3)C(=O)O)nc2)cc1Cl (stereo not drawn) [Compound 13M] | > 60 |
| CC(C)(C)OC(=O)Nc1ccc(-c2nc(-c3ccc(CC(NC(=O)Nc4ccc(-c5ccc(OC(F)(F)F)cc5)cn4)C(=O)O)cc3F)no2)cc1 (stereo not drawn) [Compound 13N] | > 60 |
| CC(C)c1ccc(-c2ccc(NC(=O)NC(Cc3ccc(-c4noc(-c5ccc(NC(=O)OC(C)(C)C)cc5)n4)c(F)c3)C(=O)O)nc2)cc1 (stereo not drawn) [Compound 13O] | 40 to 60 |
| Cc1ccc(N2CCC(NC(=O)NC(Cc3ccc(-c4noc(-c5ccc(NC(=O)OC(C)(C)C)cc5)n4)c(F)c3)C(=O)O)C2)cc1 (stereo not drawn) [Compound 13P] | > 60 |

Second part, the molecule after the results:

| activation at 10 µM [%] | SMILES |
| --- | --- |
| > 60 | CC(C)(C)OC(=O)Nc1ccc(-c2nc(-c3ccc(CC(NC(=O)c4cccc(-c5ccc(Cl)cc5)c4)C(=O)O)cc3F)no2)cc1 (stereo not drawn) [Compound 13Q] |
| > 60 | Cc1ccc(-c2cccc(NC(=O)NC(Cc3ccc(-c4noc(-c5ccc(NC(=O)OC(C)(C)C)cc5)n4)c(F)c3)C(=O)O)c2)cc1 (stereo not drawn) [Compound 13R] |
| > 60 | CC(C)(C)OC(=O)Nc1ccc(-c2nc(-c3ccc(CC(NC(=O)Nc4cc(-c5ccc(F)c(Br)c5)n[nH]4)C(=O)O)cc3F)no2)cc1 (stereo not drawn) [Compound 13S] |
| > 60 | CC(C)(C)OC(=O)Nc1ccc(-c2nc(-c3ccc(CC(NC(=O)Nc4ccc(-c5ccccc5F)cn4)C(=O)O)cc3F)no2)cc1 (stereo not drawn) [Compound 13T] |
| > 60 | Cc1ccccc1-c1ccc(NC(=O)NC(Cc2ccc(-c3noc(-c4ccc(NC(=O)OC(C)(C)C)cc4)n3)c(F)c2)C(=O)O)nc1 (stereo not drawn) [Compound 13U] |
| > 60 | CC(C)(C)OC(=O)Nc1ccc(-c2nc(-c3ccc(CC(NC(=O)Nc4ccc(-c5cccc(Cl)c5)cn4)C(=O)O)cc3F)no2)cc1 (stereo not drawn) [Compound 13V] |
| > 60 | CC(C)(C)OC(=O)Nc1ccc(-c2nc(-c3ccc(CC(NC(=O)Nc4ccc(-c5cccc(F)c5)cn4)C(=O)O)cc3F)no2)cc1 (stereo not drawn) [Compound 13W] |
| > 60 | CC(C)(C)OC(=O)Nc1ccc(-c2nc(-c3ccc(CC(NC(=O)Nc4ccc(-c5ccccc5)cn4)C(=O)O)cc3F)no2)cc1 (stereo not drawn) [Compound 13X] |
| > 60 | COc1ccc(-c2ccc(NC(=O)NC(Cc3ccc(-c4noc(-c5ccc(NC(=O)OC(C)(C)C)cc5)n4)c(F)c3)C(=O)O)nc2)cc1 (stereo not drawn) [Compound 13Y] |
| > 60 | CC(C)(C)OC(=O)Nc1ccc(-c2nc(-c3ccc(CC(NC(=O)Nc4ccc(-c5cccs5)cn4)C(=O)O)cc3F)no2)cc1 (stereo not drawn) [Compound 13Z] |
| > 60 | Cc1ccc(-c2ccc(C(=O)NC(Cc3ccc(-c4noc(-c5ccc(NC(=O)OC(C)(C)C)cc5F)n4)c(F)c3)C(=O)O)o2)cc1 (stereo not drawn) [Compound 14A] |
| > 60 | Cc1ccc(-c2cncc(C(=O)NC(Cc3ccc(-c4noc(-c5ccc(NC(=O)OC(C)(C)C)cc5)n4)c(F)c3)C(=O)O)c2)cc1 (stereo not drawn) [Compound 14B] |
| > 60 | Cc1ccc(-c2cc(C(=O)NC(Cc3ccc(-c4noc(-c5ccc(NC(=O)OC(C)(C)C)cc5)n4)c(F)c3)C(=O)O)ccn2)cc1 (stereo not drawn) [Compound 14C] |
| 40 to 60 | Cc1ccc(-c2ccc(C(=O)NC(Cc3ccc(-c4noc(-c5ccc(NC(=O)OC(C)(C)C)c(C)c5)n4)c(F)c3)C(=O)O)o2)cc1 (stereo not drawn) [Compound 14D] |
| > 60 | COc1ccc(-c2cncc(C(=O)NC(Cc3ccc(-c4noc(-c5ccc(NC(=O)OC(C)(C)C)cc5)n4)c(F)c3)C(=O)O)c2)cc1 (stereo not drawn) [Compound 14G] |

Same assay, conditions: 6 h; concentration 3.16 μM; read-out: Activity (agonist), percentage of the activity of the control

| SMILES | activation at 3.16 µM [%] |
| --- | --- |
| Cc1ccc(-c2ccc(C(=O)N[C@@H](Cc3ccc(-c4noc(-c5ccc(NC(=O)OC(C)(C)C)cc5)n4)c(F)c3)C(=O)O)o2)cc1 [Compound 12E] | > 60 |
